Measured values taken from US20220347139A1, “METHOD OF TREATMENT VIA INTRA-ARTICULAR APPLICATION OF POTASSIUM” (Rensselaer Polytechnic Institute, priority 2018, published 2022).
Entries after “also recorded” stand apart in the source; their conditions may differ.

How the values were obtained:
[1] = test system: Raw 264.7 murine macrophages; assay: IFN-stimulated macrophages in PEGDA hydrogels, in vitro mimic of intra-articular injection; assay type: cell-based
Protocol: Referring now to FIG. 5A, an in vitro experiment was designed to mimic an intra-articular injection of potassium osmolytes consistent with the embodiments described above. Poly(ethylene glycol) diacrylate hydrogels encapsulated with proinflammatory interferon-gamma (IFN)-stimulated macrophages (M(IFN)s) were prepared. M(IFN)s were cultured for 5 days in the continued presence of IFN, with 80 mM K+ applied only during the first day and then removed. Other IA injection formulations—human mesenchymal stem cells (MSCs) and methylprednisolone acetate (MPA)—were also included to gain a sense of efficacy and benchmark against current OA treatments.
The PEGDA hydrogel (˜50 kPa stiffness) was provided at the bottom of the culture well to create a surface that more closely matches the stiffness of articular cartilage (aggregate modulus ˜500 kPa) than traditional plastic 2D surfaces (˜1×10^6 kPa). MSC behavior is known to respond to substrate stiffness. Assessments for treatment efficacy included cell lysate levels of several proinflammatory markers, anti-inflammatory markers, and the ratio between anti/proinflammatory profiles.
(§1) Raw 264.7 murine macrophages (a cell line) were thawed and expanded in regular growth medium: high-glucose Dulbecco's modified Eagle's medium (DMEM; Corning) supplemented with 10% fetal bovine serum (FBS; Hyclone, Atlanta Biologicals, Inc.). Primary human OACs (Cell Applications, Inc.) were expanded in chondrogenic growth media for four passages, transitioned into regular growth medium for 1 passage, and utilized at passage 5.
Aliquots ([…]; 1×10^6 cells per construct) of the cell/polymer suspension were dispensed into the wells of a 48-well plate (Corning) and cured by exposure to long-wave UV light (˜10 mW/cm^2) for 6 min. […]
Referring now to FIGS. 5B and 5C, relative protein production of proinflammatory and anti-inflammatory molecules and the ratio between anti/proinflammatory profiles in Raw 264.7 macrophages were determined after 5 days in culture. […]

Primary human OACs = assay: Inflammatory protein production in osteoarthritic chondrocytes after short-term K+ treatment; assay type: cell-based
Description: as §1
Referring now to FIGS. 5B and 5C, relative protein production of proinflammatory and anti-inflammatory molecules and the ratio between anti/proinflammatory profiles in Raw 264.7 macrophages were determined after 5 days in culture. “*” denotes a significant difference relative to IFN controls. “#” denotes a significant difference relative to 24-h 80 mM K^+ gluconate. “+” denotes a significant difference relative to 24-h MSCs.

O=C([O-])[C@H](O)[C@@H](O)[C@H](O)[C@H](O)CO.[K+] [K+ gluconate, potassium gluconate]
anti/proinflammatory cytokine ratio (relative protein production) ([1]; 80 mM K+ applied during the first day only, 5 days in culture in continued presence of IFN, relative to IFN controls): significantly enhanced
macrophage polarization ([1]; 80 mM, M(IFN)s): toward an anti-inflammatory/proresolving phenotype
anti/proinflammatory profile, 40 mM versus 80 mM treatment ([1]; comparison between 40 and 80-mM treatments): not significantly different
IL-8 production (Primary human OACs): extended benefit
MCP-1 production (Primary human OACs): extended benefit
MMP-13 production (Primary human OACs; listed as K^+): extended benefit; also recorded: reduced production
